Reference: PubChem BioAssay (NCI)
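Where inhibition never reached the appropriate level, the endpoint shown equals the highest concentration tested. Otherwise, values were interpolated linearly from a five-concentration, 48-hour dose response in 96-well plates. GI50 = concentration required for 50% inhibition of growth. TGI: concentration producing complete growth inhibition.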

What was measured:
Experiment in all cases: NCI tumour cell line growth inhibition, 48 h
[1] = tested on: A549 NSCLC
[2] = tested on: SNB-19 CNS
[3] = tested on: SK-MEL-2 melanoma
[4] = tested on: OVCAR-3 ovarian
[5] = tested on: HOP-92 NSCLC
[6] = tested on: SK-MEL-5 melanoma
[7] = tested on: EKVX NSCLC
[8] = tested on: HS 578T breast
[9] = tested on: IGROV1 ovarian
[10] = tested on: CAKI-1 renal
[11] = tested on: HOP-62 NSCLC
[12] = tested on: LOX IMVI melanoma
[13] = tested on: SF-268 CNS
[14] = tested on: SF-295 CNS
[15] = tested on: T-47D breast
[16] = tested on: NCI/ADR-RES ovarian
[17] = tested on: K-562 leukemia
[18] = tested on: UO-31 renal
[19] = tested on: MCF7 breast
[20] = tested on: HCT-116 colon
[21] = tested on: M14 melanoma
[22] = tested on: CCRF-CEM leukemia
[23] = tested on: 786-0 renal
[24] = tested on: HL-60(TB) leukemia
[25] = tested on: HCC-2998 colon
[26] = tested on: NCI-H226 lung
[27] = tested on: SF-539 CNS
[28] = tested on: NCI-H23 lung
[29] = tested on: HT29 colon
[30] = tested on: UACC-257 melanoma
[31] = tested on: COLO 205 colon
[32] = tested on: MDA-MB-435
[33] = tested on: PC-3 prostate
[34] = tested on: NCI-H460 lung
[35] = tested on: KM12 colon
[36] = tested on: RXF 393 renal
[37] = tested on: TK-10 renal
[38] = tested on: OVCAR-8 ovarian
[39] = tested on: MALME-3M melanoma
[40] = tested on: MDA-MB-231 breast
[41] = tested on: SN12C renal
[42] = tested on: SR leukemia
[43] = tested on: U251 CNS
[44] = tested on: SK-MEL-28 melanoma
[45] = tested on: RPMI-8226 leukemia
[46] = tested on: OVCAR-4 ovarian
[47] = tested on: A498 renal
[48] = tested on: SK-OV-3 ovarian
[49] = tested on: HCT-15 colon
[50] = tested on: SW-620 colon
[51] = tested on: NCI-H522 lung
[52] = tested on: MOLT-4 leukemia
[53] = tested on: BT-549 breast
[54] = tested on: UACC-62 melanoma
[55] = tested on: DU-145 prostate
[56] = tested on: SNB-75 CNS
[57] = tested on: ACHN renal
[58] = tested on: OVCAR-5 ovarian

CN1CCc2nc3sc(C(N)=O)c(N)c3c(-c3cccs3)c2C1
GI50 [1]: 3.37 µM
TGI [1]: > 100 µM
GI50 [2]: 4.34 µM
TGI [2]: > 100 µM
GI50 [3]: 2.67 µM
TGI [3]: 6.22 µM
GI50 [4]: 2.16 µM
TGI [4]: 6.23 µM
GI50 [5]: 3.16 µM
TGI [5]: 9.16 µM
GI50 [6]: 1.43 µM
TGI [6]: 5.24 µM
GI50 [7]: 3.54 µM
TGI [7]: > 100 µM
GI50 [8]: 3.07 µM
TGI [8]: 21.7 µM
GI50 [9]: 5.16 µM
TGI [9]: > 100 µM
GI50 [10]: 2.82 µM
TGI [10]: > 100 µM
GI50 [11]: 3.27 µM
TGI [11]: > 100 µM
GI50 [12]: 1.27 µM
TGI [12]: > 100 µM
GI50 [13]: 3.85 µM
TGI [13]: > 100 µM
GI50 [14]: 3.61 µM
TGI [14]: > 100 µM
GI50 [15]: 2.81 µM
TGI [15]: > 100 µM
GI50 [16]: 3.69 µM
TGI [16]: 98.8 µM
GI50 [17]: 4.99 µM
TGI [17]: > 100 µM
GI50 [18]: 3.47 µM
TGI [18]: > 100 µM
GI50 [19]: 4.1 µM
TGI [19]: > 100 µM
GI50 [20]: 2.31 µM
TGI [20]: > 100 µM
GI50 [21]: 4.19 µM
TGI [21]: 19.4 µM
GI50 [22]: 3.77 µM
TGI [22]: > 100 µM
GI50 [23]: 4.41 µM
TGI [23]: > 100 µM
GI50 [24]: 2.5 µM
TGI [24]: 6.97 µM
GI50 [25]: 3.54 µM
TGI [25]: 20.9 µM
GI50 [26]: 3.16 µM
TGI [26]: > 100 µM
GI50 [27]: 2.35 µM
TGI [27]: 6.79 µM
GI50 [28]: 2.87 µM
TGI [28]: 12.6 µM
GI50 [29]: 3.11 µM
TGI [29]: 70.9 µM
GI50 [30]: 4 µM
TGI [30]: > 100 µM
GI50 [31]: 1.43 µM
TGI [31]: 3.66 µM
GI50 [32]: 3.13 µM
TGI [32]: > 100 µM
GI50 [33]: 4.58 µM
TGI [33]: > 100 µM
GI50 [34]: 3.71 µM
TGI [34]: > 100 µM
GI50 [35]: 2.7 µM
TGI [35]: > 100 µM
GI50 [36]: 1.11 µM
TGI [36]: 3.63 µM
GI50 [37]: 3.32 µM
TGI [37]: 13.1 µM
GI50 [38]: 2.7 µM
TGI [38]: > 100 µM
GI50 [39]: 5.06 µM
TGI [39]: 38.4 µM
GI50 [40]: 4.77 µM
TGI [40]: > 100 µM
GI50 [41]: 2.69 µM
TGI [41]: > 100 µM
GI50 [42]: 1.8 µM
TGI [42]: 7.31 µM
GI50 [43]: 3.18 µM
TGI [43]: > 100 µM
GI50 [44]: 2.91 µM
TGI [44]: 9.59 µM
GI50 [45]: 4.41 µM
TGI [45]: > 100 µM
GI50 [46]: 7.38 µM
TGI [46]: > 100 µM
GI50 [47]: 2.58 µM
TGI [47]: 7.27 µM
GI50 [48]: 3.35 µM
TGI [48]: > 100 µM
GI50 [49]: 3.31 µM
TGI [49]: > 100 µM
GI50 [50]: 4.02 µM
TGI [50]: > 100 µM
GI50 [51]: 2.91 µM
TGI [51]: 17.8 µM
GI50 [52]: 2.89 µM
TGI [52]: 48.4 µM
GI50 [53]: 3.26 µM
TGI [53]: 35.5 µM
GI50 [54]: 2.38 µM
TGI [54]: 6.56 µM
GI50 [55]: 3.91 µM
TGI [55]: 86.9 µM
GI50 [56]: 2.81 µM
TGI [56]: 8.03 µM

COc1ccc(Nc2ccnc(N3CCN(c4ccnc5cc(Cl)ccc45)CC3)n2)cc1
GI50 [1]: 1.47 µM
TGI [1]: > 100 µM
GI50 [2]: 1.48 µM
TGI [2]: > 100 µM
GI50 [3]: 1.03 µM
TGI [3]: 3.27 µM
GI50 [4]: 0.729 µM
TGI [4]: 15.4 µM
GI50 [5]: 0.32 µM
TGI [5]: 4.5 µM
GI50 [6]: 0.579 µM
TGI [6]: 1.87 µM
GI50 [57]: 0.955 µM
TGI [57]: > 24.5 µM
GI50 [8]: 1.4 µM
TGI [8]: 9.06 µM
GI50 [9]: 0.696 µM
GI50 [10]: 0.576 µM
TGI [10]: 3.92 µM
GI50 [11]: 1.27 µM
TGI [11]: > 29 µM
GI50 [12]: 0.884 µM
TGI [12]: 5.23 µM
GI50 [58]: 2.15 µM
TGI [58]: > 100 µM
GI50 [13]: 2.31 µM
TGI [13]: > 100 µM
GI50 [14]: 0.267 µM
TGI [14]: 1.08 µM
GI50 [15]: 1.39 µM
TGI [15]: 6.99 µM
GI50 [16]: 0.769 µM
TGI [16]: 5.22 µM
GI50 [17]: 0.444 µM
TGI [17]: > 20.8 µM
GI50 [18]: 0.629 µM
TGI [18]: 4.29 µM
GI50 [19]: 1.01 µM
TGI [19]: 7.32 µM
GI50 [20]: 0.485 µM
TGI [20]: 3.27 µM
GI50 [21]: 0.768 µM
TGI [21]: 3.28 µM
GI50 [22]: 1.74 µM
TGI [22]: > 34.2 µM
GI50 [23]: 1.4 µM
TGI [23]: 6.87 µM
GI50 [24]: 1.14 µM
TGI [24]: 7.18 µM
GI50 [25]: 2.73 µM
TGI [25]: > 55.4 µM
GI50 [26]: 1.41 µM
TGI [26]: 6.09 µM
GI50 [27]: 0.968 µM
TGI [27]: 3.26 µM
GI50 [28]: 1.65 µM
TGI [28]: 9.4 µM
GI50 [29]: 0.542 µM
TGI [29]: 4.92 µM
GI50 [30]: 1.25 µM
TGI [30]: 2.84 µM
GI50 [31]: 1.38 µM
TGI [31]: 3.8 µM
GI50 [32]: 0.227 µM
TGI [32]: 0.707 µM
GI50 [33]: 0.705 µM
TGI [33]: 7.25 µM
GI50 [34]: 0.837 µM
TGI [34]: 4.68 µM
GI50 [35]: 1.01 µM
TGI [35]: 4.16 µM
GI50 [36]: 1.31 µM
TGI [36]: 6.6 µM
GI50 [37]: 2.18 µM
TGI [37]: 7.95 µM
GI50 [38]: 1.68 µM
TGI [38]: > 21.7 µM
GI50 [39]: 1.11 µM
TGI [39]: 4.65 µM
GI50 [40]: 1.51 µM
TGI [40]: > 29.8 µM
GI50 [41]: 1.67 µM
TGI [41]: > 100 µM
GI50 [42]: 0.601 µM
TGI [42]: 6.88 µM
GI50 [43]: 1.17 µM
TGI [43]: 11.5 µM
GI50 [44]: 1.21 µM
TGI [44]: 4.89 µM
GI50 [45]: 1.04 µM
TGI [45]: 3.88 µM
GI50 [46]: 1.34 µM
TGI [46]: > 100 µM
GI50 [47]: 0.342 µM
TGI [47]: 4.17 µM
GI50 [48]: 2.62 µM
TGI [48]: > 100 µM
GI50 [49]: 0.83 µM
TGI [49]: > 100 µM
GI50 [50]: 0.739 µM
TGI [50]: > 73.1 µM
GI50 [51]: 0.321 µM
TGI [51]: 1.75 µM
GI50 [52]: 1.56 µM
TGI [52]: 4.37 µM
GI50 [53]: 1.16 µM
TGI [53]: 3.72 µM
GI50 [54]: 0.292 µM
TGI [54]: 1.43 µM
GI50 [55]: 2.59 µM
TGI [55]: > 30.5 µM
GI50 [56]: 1.4 µM
TGI [56]: 4.82 µM
